Test results reported in PMC4698308, “A new amino acid substitution (Ala-205-Phe) in acetolactate synthase (ALS) confers broad spectrum resistance to ALS-inhibiting herbicides” (Planta, 2015).
Where two headings read alike, the source gives them in different places.

Experiments:
[1] = system: recombinant Arabidopsis thaliana ALS variant A205V; format: biochemical; settings: IC50 mutant divided by IC50 sensitive ALS; max inhibitor concentration 1.00 × 10^−04 M
Procedure: (§1) Effects of SNPs identified in sequencing analysis on ALS activity were studied using A. thaliana. The ALS gene from A. thaliana and derivatives thereof were de novo synthesized and subcloned into pET-24d(+) (Life Technologies. Grand Island, NY, USA) using NcoI and XhoI restriction sites. Protein constructs contained an 85 amino acid N-terminal deletion (chloroplast transit peptide) and the addition of an N-terminal Hexa-histidine tag to facilitate purification.
(§2) Lysis was performed by at least two passes through a fluidizer, followed by centrifuging at 80000×g for 30 min at 4 °C. […] Fractions containing ALS protein were pooled and stored at −20 °C.
(§3) Inhibitors, purchased from Sigma as Pestanal standards (Sigma-Aldrich, Deisenhofen, Germany), were dissolved in DMSO and added to the reaction mixture. Inhibitors evaluated included imidazolinone, sulfonylurea, triazolopyrimidines, sulfonylamino-carbonyl- triazolinones, and pyrimidinyl (thio) benzoate herbicides. The reaction mixture was incubated at 30 °C for 60 min and stopped with 70 µl of H2SO4 (3 M). The reaction was then heated to 56 °C for 15 min to convert acetolactate into acetoin. […] For each inhibitor, resistance factors were calculated by dividing IC50 values for mutant and sensitive ALS.

[2] = system: recombinant Arabidopsis thaliana ALS variant A205F; format: biochemical; settings: IC50 mutant divided by IC50 sensitive ALS; max inhibitor concentration 1.00 × 10^−04 M
Procedure: as §1, §2, §3

[3] = system: recombinant Arabidopsis thaliana ALS variant W574L; format: biochemical; settings: IC50 mutant divided by IC50 sensitive ALS; max inhibitor concentration 1.00 × 10^−04 M
Procedure: as §1, §2, §3

[4] = biological target: T1, recombinant Arabidopsis thaliana ALS wild-type enzyme (WT—sensitive) (Arabidopsis thaliana, UniProt P17597); experiment: biochemical
T1 construct: Protein constructs contained an 85 amino acid N-terminal deletion (chloroplast transit peptide); Hexa-histidine tag (N); made in house
Procedure: as §1, §2, §3

[5] = system: annual bluegrass (Poa annua L.); experiment: Whole plant confirmation of target-site resistance (visual control and dry biomass 28 days after treatment); format: in vivo
Procedure: Progeny of all POAAN-R3 plants subjected to genetic sequencing (RP1–RP8) were surface seeded into separate 10.2 × 10.2 cm greenhouse pots (Dillen Products/Myers Industries, Inc. Middlefield, OH, USA.) filled with a peat moss growing medium (ProMix BX Mycorrhizae. Premier Tech Horticulture, Quakertown, PA, USA) on 5 January 2015. The susceptible annual bluegrass population (S) included in our sequencing analysis was also seeded in the same fashion.
After seeding, pots were placed inside a growth chamber (Conviron A1000. Controlled Environments Inc, Hendersonville, NC) configured to provide 14 h day at 19 °C and a 10 h night at 10 °C. Light intensity inside the chamber averaged 296 μmol m^−2 s^−1. Irrigation was applied to each pot daily using distilled water and a misting nozzle. Annual bluegrass emergence was first noted on 16 January 2015. Plants remained inside the growth chamber until 26 January 2015. On this date, seedlings of each plant (RP1–RP8, S) were transplanted into individual 164 cm^3 plastic conical containers (SC10 Super Cell Cone-tainer. Stuewe and Sons. Tangent, OR 97389) filled with Sequatchie silt loam (fine-loamy, siliceous, semiactive, thermic humic Hapludult) measuring 6.2 in soil pH and 2.1 % in organic matter content. Transplants were replicated such that 32 plastic conical containers were created for each annual bluegrass plant analyzed in previous experiments (RP1–RP8, S). Immediately after transplanting, plastic conical containers were placed in a glasshouse located at the University of Tennessee (Knoxville, TN, USA; 35.56, 83.56). Peak light intensity in this glasshouse averaged 714 μmol m^−2 s^−1 with day/night temperatures averaging 27/17 °C. Irrigation was applied daily using an overhead misting system and plants were not clipped prior to initiating this study.
Plants were allowed to acclimate to this glasshouse environment for 10 days prior to being treated with foramsulfuron (Revolver. Bayer Environmental Sciences. Research Triangle Park, NC, USA) at 29 g ha^−1, imazamox (Clearcast. BASF Corporation. Research Triangle Park, NC) at 140 g ha^−1, or simazine (Princep 4L. Syngenta Professional Products. Greensboro, NC) at 1120 g ha^−1. Per label recommendations, imazamox and simazine treatments included a non-ionic surfactant (Activator-90. Loveland Products Inc. Greeley, CO, USA) at 0.25 % v/v. All treatments were applied in an enclosed spray chamber (Generation III track sprayer. DeVries Manufacturing, Hollandale, MN, USA) using a water carrier at 215 L ha^−1 through an 8004 EVS nozzle (TeeJet, Technologies, Spraying Systems Co., Glendale Heights, IL, USA). These herbicide treatments were selected to confirm results of genetic sequencing that RP1–RP8 were resistant to sulfonylurea, imidazolinone, and photosystem II inhibiting herbicides. A non-treated control treatment was included with each resistant (RP1–RP8) and susceptible (S) plant for comparison. Herbicides were applied on 5 February 2015 when plants were at a two-to-three leaf stage, prior to annual bluegrass tiller formation.
Annual bluegrass control was visually assessed on a 0 (i.e., no control) to 100 % (i.e., complete kill) scale relative to the non-treated 28 days after treatment. After all control data had been collected, aboveground biomass was harvested from each plastic conical container at the soil line using scissors, dried at 100 °C for 3 days, and weighed.
Treatments were arranged as a 9 × 4 factorial with nine plant selections (i.e., RP1–RP8, S) and four herbicide treatments (i.e., foramsulfuron, imazamox, simazine, non-treated) in a completely randomized design with four replications and repeated in time and space during February 2015. Plants were the same age during both experimental runs.

[6] = concentration for 50 % inhibition of WT enzyme, max inhibitor concentration 1.00 × 10^−04 M, read-out: WT sensitivity [IC50]

T1 sequence (P17597 86-670): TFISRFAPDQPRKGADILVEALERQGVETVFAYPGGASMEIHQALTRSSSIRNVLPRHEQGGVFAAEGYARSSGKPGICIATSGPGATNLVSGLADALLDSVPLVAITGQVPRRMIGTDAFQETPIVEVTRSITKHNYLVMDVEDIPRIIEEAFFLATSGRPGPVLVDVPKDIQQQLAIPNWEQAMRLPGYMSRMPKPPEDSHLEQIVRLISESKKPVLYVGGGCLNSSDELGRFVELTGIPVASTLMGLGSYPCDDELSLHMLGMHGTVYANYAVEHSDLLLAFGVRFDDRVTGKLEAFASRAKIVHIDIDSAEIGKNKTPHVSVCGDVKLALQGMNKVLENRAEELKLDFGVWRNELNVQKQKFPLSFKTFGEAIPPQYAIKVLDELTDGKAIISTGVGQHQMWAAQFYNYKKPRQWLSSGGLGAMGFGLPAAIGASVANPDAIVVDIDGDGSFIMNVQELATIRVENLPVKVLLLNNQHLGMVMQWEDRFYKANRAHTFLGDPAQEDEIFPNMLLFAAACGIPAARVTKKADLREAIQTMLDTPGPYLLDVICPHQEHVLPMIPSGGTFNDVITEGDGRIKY

| Structure (SMILES) | Resistance factor A205V [1] | Resistance factor A205F [2] | Resistance factor W574L [3] | IC50 [4, 6] [µM] | IC50 [4] [µM] | further results |
| --- | --- | --- | --- | --- | --- | --- |
| COc1cc(OC)nc(Oc2cccc(Oc3nc(OC)cc(OC)n3)c2C(=O)O)n1 [Bispyribac] | 11 | 7 | 7944 | 0.00158 |  |  |
| COc1ncc(F)c2nc(S(=O)(=O)Nc3c(F)cccc3F)nn12 [Florasulam] | 89 | 1 | 370 | 0.00343 |  |  |
| COc1nn(C(=O)NS(=O)(=O)c2ccccc2OC(F)(F)F)c(=O)n1C [Flucarbazone] | 2 | 441 | 7 | 0.0245 |  |  |
| COCc1cnc(C2=NC(C)(C(C)C)C(=O)N2)c(C(=O)O)c1 (centres unmarked) [Imazamox] | 34 |  | 34 |  | 2.93 | annual bluegrass control, resistant plants with the exception of RP6 ([5]; 28 days after treatment, summary over RP1–RP5, RP7, RP8): ≤ 11%; Annual bluegrass biomass RP1 ([5]; RP1, aboveground dry biomass 28 days after treatment, foramsulfuron 29, imazamox 140, simazine 1120 g ha^-1): 84 % of nontreated control; Annual bluegrass control RP1 ([5]; RP1 plants, 28 days after treatment, 2 to 3 leaf stage, foramsulfuron 29, imazamox 140, simazine 1120 g ha^−1): 2%; Annual bluegrass biomass RP2 ([5]; RP2, aboveground dry biomass 28 days after treatment, foramsulfuron 29, imazamox 140, simazine 1120 g ha^-1): 66 % of nontreated control; Annual bluegrass control RP2 ([5]; RP2 plants, 28 days after treatment, 2 to 3 leaf stage, foramsulfuron 29, imazamox 140, simazine 1120 g ha^−1): 0%; Annual bluegrass biomass RP3 ([5]; RP3, aboveground dry biomass 28 days after treatment, foramsulfuron 29, imazamox 140, simazine 1120 g ha^-1): 94 % of nontreated control; Annual bluegrass control RP3 ([5]; RP3 plants, 28 days after treatment, 2 to 3 leaf stage, foramsulfuron 29, imazamox 140, simazine 1120 g ha^−1): 0%; Annual bluegrass biomass RP4 ([5]; RP4, aboveground dry biomass 28 days after treatment, foramsulfuron 29, imazamox 140, simazine 1120 g ha^-1): 55 % of nontreated control; Annual bluegrass control RP4 ([5]; RP4 plants, 28 days after treatment, 2 to 3 leaf stage, foramsulfuron 29, imazamox 140, simazine 1120 g ha^−1): 0%; Annual bluegrass biomass RP5 ([5]; RP5, aboveground dry biomass 28 days after treatment, foramsulfuron 29, imazamox 140, simazine 1120 g ha^-1): 49 % of nontreated control; Annual bluegrass control RP5 ([5]; RP5 plants, 28 days after treatment, 2 to 3 leaf stage, foramsulfuron 29, imazamox 140, simazine 1120 g ha^−1): 3%; Annual bluegrass biomass RP6 ([5]; RP6, aboveground dry biomass 28 days after treatment, foramsulfuron 29, imazamox 140, simazine 1120 g ha^-1): 70 % of nontreated control; Annual bluegrass control RP6 ([5]; RP6 plants, 28 days after treatment, 2 to 3 leaf stage, foramsulfuron 29, imazamox 140, simazine 1120 g ha^−1): 16%; Annual bluegrass biomass RP7 ([5]; RP7, aboveground dry biomass 28 days after treatment, foramsulfuron 29, imazamox 140, simazine 1120 g ha^-1): 87 % of nontreated control; Annual bluegrass control RP7 ([5]; RP7 plants, 28 days after treatment, 2 to 3 leaf stage, foramsulfuron 29, imazamox 140, simazine 1120 g ha^−1): 4%; Annual bluegrass biomass RP8 ([5]; RP8, aboveground dry biomass 28 days after treatment, foramsulfuron 29, imazamox 140, simazine 1120 g ha^-1): 86 % of nontreated control; Annual bluegrass control RP8 ([5]; RP8 plants, 28 days after treatment, 2 to 3 leaf stage, foramsulfuron 29, imazamox 140, simazine 1120 g ha^−1): 0%; Annual bluegrass control S ([5]; susceptible (S) plants, 28 days after treatment, 2 to 3 leaf stage, foramsulfuron 29, imazamox 140, simazine 1120 g ha^−1): 93%; Annual bluegrass biomass S ([5]; susceptible (S), aboveground dry biomass 28 days after treatment, foramsulfuron 29, imazamox 140, simazine 1120 g ha^-1): 3 % of nontreated control |
| COc1cc(OC)nc(NC(=O)NS(=O)(=O)c2cc(CNS(C)(=O)=O)ccc2C(=O)O)n1 [Mesosulfuron] | 16 | 293 | 104 | 0.00133 |  |  |
| COc1cc(OC)n2nc(S(=O)(=O)Nc3c(Cl)ccc(C)c3Cl)nc2n1 [Metosulam] | 34 | 1656 | 107 |  | 0.000441 |  |
| COc1cc(OC)nc(NC(=O)NS(=O)(=O)c2ncccc2C(=O)N(C)C)n1 [Nicosulfuron] | 30 | 1401 | 35 |  | 0.0714 |  |
| CCCOc1nn(C(=O)[N-]S(=O)(=O)c2ccccc2C(=O)OC)c(=O)n1C.[Na+] [Propoxycarbazone] | 20 | 1185 | 309 |  |  |  |
| COc1cc(OC)nc(Sc2cccc3c2C(=O)OC3C)n1 (centres unmarked) [Pyriftalid] | 5 | 5 | 5 | 20 |  |  |
| COc1cc(OC)nc(Sc2cccc(Cl)c2C(=O)O)n1 [Pyrithiobac] | 433 | 306 | 134,838 |  | 0.000742 |  |
| COc1nn(C(=O)NS(=O)(=O)c2c(C(=O)O)csc2C)c(=O)n1C [Thiencarbazone] | 8 | 62 | 16 | 0.0248 |  |  |
| COc1nc(NC(=O)NS(=O)(=O)c2ccccc2C(F)(F)F)nc(C(F)(F)F)n1 [Tritosulfuron] | 37 | 5356 | 167 | 0.0187 |  |  |
